Here are results for four compounds from US20230399332A1, “IMIDAZO[1,2-a]PYRAZINE OR PYRAZOLO[1,5-a]PYRIMIDINE DERIVATIVE AND USE THEREOF” (TENCENT TECHNOLOGY (SHENZHEN) COMPANY LIMITED, priority 2022, published 2023).

In general, IC50 refers to the concentration that gives 50% inhibition. A high value points to weaker potency in that assay.

Molecules are shown by their SMILES. Where two headings read alike, the source gives them in different places.

The target in one data set is LSD1 (Homo sapiens (Human), UniProt O60341). The data set can be described thus: LSD1 inhibitory activity on an enzyme level, AlphaScreen method. Format: biochemical. Conditions: in vitro. On the procedure: This experiment was carried out to test the in vitro inhibitory activity of the compounds of the present disclosure against LSD1.
Experimental steps and a method: In this experiment, the in vitro inhibitory activity of the compounds of the present disclosure against LSD1 on an enzyme level was tested by using an AlphaScreen method. The experimental steps are described as follows: • a) preparation of a 1× buffer: • preparing a 1× buffer (improved trihydroxymethylaminomethane buffer); • b) continuous dilution of the compounds: • transferring the compounds of the present disclosure to a porous plate by using Echo at a final DMSO concentration of 1%; • c) preparation of an enzyme solution: • preparing an enzyme solution in the 1× buffer; • d) preparation of a substrate solution: • adding polypeptide to the 1× buffer to prepare a substrate solution; • e) transferring 5 μL of the enzyme solution or the 1× buffer to the porous plate; • f) conducting incubation at room temperature for 15 min; • g) adding 5 μL of the substrate solution to each well to induce a reaction; • h) conducting incubation at room temperature for 40 min; • i) preparing a 1× Alphalisa buffer; • j) preparation of a 1× Alphalisa buffer solution of receptors and donors: • adding 15 μL of a receptor and donor solution in dark light environment, and conducting incubation at room temperature for 60 min; • k) reading an endpoint in an EnSpire Alpha mode; and • l) data processing: • calculating an inhibitory value according to an equation 1:
Inh %=(Max−Signal)/(Max−Min)*100; and equation 1: • calculating an IC50 value by using XL-Fit according to an equation 2:
Y=Bottom+(Top-Bottom)/(1+(IC50/X)[…]), equation 2: • where Y indicates the inhibitory rate, and X indicates the concentration of a compound.

The target in a further data set is hERG (Homo sapiens (Human), UniProt Q12809). As to the kind of experiment: hERG inhibitory activity, whole cell patch clamp in CHO hERG cells. Format: cell-based. Conditions: for inhibition at 10 µM: human, CHO cells that express hERG, read-out: hERG inhibitory rate. The protocol:
This experiment was carried out to test the in vitro inhibitory activity of the compounds of the present disclosure against hERG.
In this method, whole cell recording was conducted by using a HEKA EPC 10 USB patch clamp amplifier (HEKA Elektronik, Germany). A cover slide with a large number of individual CHO hERG cells on the surface was removed and placed in a recording tank which was treated with continuous perfusion (about 1 ml/min) and loaded into an inverted microscope. Currents of hERG channels of the individual cells were recorded by using a standard whole cell recording method. A fixed voltage of −80 mV was applied to the cells by a voltage clamp. The hERG currents were activated by depolarization at +20 mV for 5 s, and then the currents were changed back at −50 mV for 5 s to remove a passivation effect and observe deactivated tail currents. Potassium ion tail currents observed in the hERG channels were stabilized by continuous perfusion in this step. Then, the cells were treated with a drug of the present disclosure until a stable state was reached. A stable state was considered as being reached when three consecutive superimposed currents were recorded. At this time point, the cells were treated again with an extracellular solvent until the current amplitude was changed back to near the level before administration. Cisapride was used in a control experiment to verify that the mass and response of hERG cells were in a normal state.
(In general: hERG is a cardiac potassium channel; its block is linked to QT prolongation.)

Data set [1] is described as follows: Pharmacokinetics after intravenous injection or oral administration in mice. In kind it is in vivo. Conditions: mouse, plasma, CD-1 mice, 5 mg/kg; for AUC(0-t): read-out: Curve area AUC0-t; for half-life: read-out: Half-life T1/2 (converted). On the procedure:
This experiment was carried out to test pharmacokinetic properties of the compounds of the present disclosure in mice.
A tested compound was dissolved in a mixture of 10% DMSO, 10% Solutol HS15 and 80% normal saline, and subjected to vortex treatment and ultrasonic treatment to obtain a corresponding concentration of a clarified solution. Then, the clarified solution was filtered with a microporous filter membrane for later use. A resulting tested compound solution was injected intravenously to CD-1 mice with a body weight of 21 to 27 g at a dose of 5 mg/kg. A tested compound was dissolved in a mixture of 10% DMSO, 10% Solutol HS15 and 80% normal saline, and subjected to vortex treatment and ultrasonic treatment to obtain a corresponding concentration of a clarified solution. Then, the clarified solution was filtered with a microporous filter membrane for later use. A resulting tested compound solution was administered orally to CD-1 mice with a body weight of 21 to 27 g at a dose of 5 mg/kg. Whole blood was collected at certain time points, and plasma was prepared. Drug concentration was analyzed by an LC-MS/MS method, and pharmacokinetic parameters were calculated by Phoenix WinNonlin software.

Sequence of hERG (Q12809 whole entry): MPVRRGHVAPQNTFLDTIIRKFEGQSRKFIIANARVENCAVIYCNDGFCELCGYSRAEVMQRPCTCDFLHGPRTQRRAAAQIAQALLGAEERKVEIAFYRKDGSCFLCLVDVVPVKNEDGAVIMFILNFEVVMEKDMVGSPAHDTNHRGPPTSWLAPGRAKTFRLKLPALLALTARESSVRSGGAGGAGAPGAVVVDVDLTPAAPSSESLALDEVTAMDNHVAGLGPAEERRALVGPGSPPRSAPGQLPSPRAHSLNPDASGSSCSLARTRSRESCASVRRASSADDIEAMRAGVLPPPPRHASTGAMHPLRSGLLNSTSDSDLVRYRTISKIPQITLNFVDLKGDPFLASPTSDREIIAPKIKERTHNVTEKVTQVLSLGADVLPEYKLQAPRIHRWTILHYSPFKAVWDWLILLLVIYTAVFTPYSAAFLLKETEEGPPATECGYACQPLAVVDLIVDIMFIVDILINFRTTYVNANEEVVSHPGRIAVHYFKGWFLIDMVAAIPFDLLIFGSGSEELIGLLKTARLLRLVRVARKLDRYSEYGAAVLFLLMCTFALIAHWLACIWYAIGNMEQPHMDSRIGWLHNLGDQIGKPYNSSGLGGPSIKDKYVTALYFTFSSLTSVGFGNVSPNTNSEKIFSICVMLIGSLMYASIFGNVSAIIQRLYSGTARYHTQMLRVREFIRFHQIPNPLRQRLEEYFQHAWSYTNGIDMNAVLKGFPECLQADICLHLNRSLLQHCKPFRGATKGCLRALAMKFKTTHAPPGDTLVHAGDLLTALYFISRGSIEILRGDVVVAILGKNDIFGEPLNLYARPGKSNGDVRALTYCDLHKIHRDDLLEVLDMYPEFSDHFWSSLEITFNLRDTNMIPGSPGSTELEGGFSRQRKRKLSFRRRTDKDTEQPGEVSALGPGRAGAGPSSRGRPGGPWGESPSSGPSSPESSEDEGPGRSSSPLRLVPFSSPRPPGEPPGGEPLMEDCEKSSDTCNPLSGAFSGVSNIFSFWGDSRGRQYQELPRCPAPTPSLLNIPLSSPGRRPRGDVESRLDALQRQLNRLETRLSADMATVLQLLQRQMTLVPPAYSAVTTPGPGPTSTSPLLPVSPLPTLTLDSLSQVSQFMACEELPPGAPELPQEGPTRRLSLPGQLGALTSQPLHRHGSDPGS

As to `CC(C)(O)Cn1nnc2cc(-c3c(-c4ccc(C#N)c(F)c4)nc4c(N5CCC[C@@H](N)C5)nccn34)c(F)cc21` [Compound 12, (R)-4-(8-(3-aminopiperidin-1-yl)-3-(6-fluoro-1-(2-hydroxy-2-methylpropyl)-1H-benzo[d][1,2,3]triazol-5-yl)imidazo[1,2-a]pyrazin-2-yl)-2-fluorobenzonitrile], the 50% inhibitory concentration (IC50) at LSD1 was 1.6 nM. The inhibition at 10 µM on hERG turned out to be 27%.

On to `CC(C)(O)Cn1nnc2cc(-c3c(-c4ccc(C#N)c(F)c4)nc4c(N5CCC[C@@H](N)C5)nccn34)c(F)cc21` [Compound 18, (R)-4-(8-(3-aminopiperidin-1-yl)-3-(6-fluoro-1-(2-hydroxy-2-methylpropyl)-1H-benzo[d][1,2,3]triazol-5-yl)imidazo[1,2-a]pyrazin-2-yl)-2-fluorobenzonitrile], for which the hERG inhibitory rate on hERG (10 μM) is given as 43.72%.

`CC(C)(O)Cn1nnc2cc(-c3c(-c4ccc(C#N)c(F)c4)nc4c(N5CCC[C@@H](N)C5)nccn34)ccc21` [Compound 20, (R)-4-(8-(3-aminopiperidin-1-yl)-3-(1-(2-hydroxy-2-methylpropyl)-1H-benzo[d][1,2,3]triazol-5-yl)imidazo[1,2-a]pyrazin-2-yl)-2-fluorobenzonitrile] registered an IC50 on LSD1 of 2.6 nM. Further, the inhibition at 10 µM on hERG was 26.7%.

On to `CC(C)(O)Cn1nnc2cc(-c3c(-c4ccc(C#N)c(F)c4)nc4c(N5[C@@H]6CC[C@H]5[C@@H](N)C6)nccn34)c(F)cc21` [Compound 27, 4-(8-((1S,2S,4R)-2-amino-7-azabicyclo[2.2.1]heptane-7-yl)-3-(6-fluoro-1-(2-hydroxy-2-methylpropyl)-1H-benzo[d][1,2,3]triazol-5-yl)imidazo[1,2-a]pyrazin-2-yl)-2-fluorobenzonitrile], for which, at LSD1, the 50% inhibitory concentration (IC50) is 1 nM. Further, the Vd in data set [1] (intravenous injection, read-out: Apparent volume of distribution V) amounted to 5.04 L/kg. Besides, the clearance in data set [1] (intravenous injection, read-out: Clearance rate CL) stood at 7.25 mL/min/kg. Further, in data set [1] (intravenous injection), the AUC(0-t) is 11500 ng·h/mL and the half-life was 8.33 h. Further, the Cmax in data set [1] (oral administration, read-out: Blood drug concentration Cmax) came to 648 ng/mL. In data set [1] (oral administration), the AUC(0-t) was 6530 ng·h/mL and the half-life is 5.86 h.
